From US8030518B2, “1,4 diamino bicyclic retigabine analogues as potassium channel modulators” (Valeant Pharmaceuticals International, priority 2006, dated 2011)

Assays:
[1] = target: T1, KCNQ2/3 heteromultimers (Rattus norvegicus, UniProt O88943+O88944); experiment: cell-based Rb+ efflux assay in PC-12 cells; settings: Rb+ efflux cellular assay
T1 construct: endogenous in cells; host or cells: PC-12 cells differentiated with NGF-7s; no transfection described
Experimental: Compounds of this invention formula were evaluated for activity toward potassium channels in a cell-based Rb^+ efflux assay. This cellular bioassay is believed to faithfully represent the M channel activities identified with KCNQ2/3 heteromultimers. […] Additionally, antiseizure activity in vivo was evaluated in a mouse maximal electroshock seizure (MES) model, and neurotoxicities were determined from a rotorod neurocognitive motor impairment model and open field observation.
PC-12 cells were grown at 37° C. and 5% CO2 in DMEM/F12 Medium (Dulbecco's Modified Eagle Medium with Nutrient Mix F-12, available from Invitrogen of Carlsbad, Calif.), supplemented with 10% horse serum, 5% fetal bovine serum, 2 mM glutamine, 100 U/ml penicillin, and 100 U/ml streptomycin. They were plated in poly-D-lysine-coated 96-well cell culture microplates at a density of 40,000 cells/well and differentiated with 100 ng/ml NGF-7s for 2-5 days. For the assay, the medium was aspirated, and the cells were washed once with 0.2 ml wash buffer (25 mM HEPES, pH 7.4, 150 mM NaCl, 1 mM MgCl2, 0.8 mM NaH2PO4, 2 mM CaCl2). The cells were then loaded with 0.2 ml Rb^+ loading buffer (wash buffer plus 5.4 mM […], 5 mM glucose) and incubated at 37° C. for 2 h. Attached cells were washed quickly three times with buffer (same as Rb^+ loading buffer, but containing 5.4 mM KCl instead of RbCl) to remove extracellular Rb^+. Immediately following the wash, 0.2 ml of depolarization buffer (wash buffer plus 15 mM KCl solution) with or without compounds was added to the cells to activate efflux of potassium ion channels. After incubation for 10 min at room temperature, the supernatant was carefully removed and collected. Cells were lysed by the addition of 0.2 ml of lysis buffer (depolarization buffer plus 0.1% Triton X-100) and the cell lysates were also collected. If collected samples were not immediately analyzed for Rb^+ contents by atomic absorption spectroscopy (see below), they were stored at 4° C. without any negative effects on subsequent Rb^+ analysis.
The concentrations of Rb^+ in the supernatants (Rb^+Sup) and the cell lysates (Rb^+Lys) were quantified using an ICR8000 flame atomic absorption spectrometer (Aurora Biomed Inc., Vancouver, B.C.) under conditions defined by the manufacturer. Samples 0.05 ml in volume were processed automatically from microtiter plates by dilution with an equal volume of Rb^+ sample analysis buffer and injection into an air-acetylene flame. The amount of Rb^+ in the sample was measured by absorption at 780 nm using a hollow cathode lamp as light source and a PMT detector. A calibration curve covering the range 0-5 mg/L Rb^+ in sample analysis buffer was generated with each set of plates. The percent Rb^+ efflux (F) was defined by F=[Rb^+Sup/(Rb^+Sup+Rb^+Lys)]×100%. […] The efflux (F) and compound concentration relationship was plotted to calculate an EC50 value, a compound's concentration for 50% of maximal Rb^+ efflux. Seizure Model Tests

[2] = test system: maximal electroshock seizure; experiment: mouse maximal electroshock seizure (MES) test; format: in vivo; parameters: key: A: active; B: inactive; settings: ip dosing of 12.5 mg/kg
Source text: The MES testing protocol is based on procedures established at the National Institute of Neurological Disorders and Stroke in conjunction with the Anticonvulsant Screening Program (ASP) at the University of Utah (White, H. S., Woodhead, J. H., Wilcox, K. S., Stables, J. P., Kupferberg, H. J and Wolf, H. H. 2002. “General Principles: Discovery and Preclinical Development of Antiepileptic Drugs,” in Antiepileptic Drugs, 5th Edition, R. H. Levy, ed.; R. H. Mattson, B. S. Meldrum, and E. Perucca. Philadelphia, Lippincott Williams & Wilkins.), The goal of the test is to rapid identify and characterize the in vivo anticonvulsant activity of any compounds that have been shown active in PC-12 cellular based Rb^+ efflux assay.
Adult male CF-1 albino mice (18-25 g, Charles River Laboratories) are […] used for MES screening of compounds. Male Sprague-Dawley albino rats (100-125 g, Charles River Laboratories) are also used to test anticonvulsant compounds. Animals are permitted to rest and recover from transit for at least 48 hr prior to experimentation. Animals are used for AED testing only once. In some instances, the animals can be anesthetized prior to blood collection or whole brain extraction for pharmacokinetic assay. All animals are maintained and handled as outlined in standard animal care guidelines.
In the experiments, testing compounds are prepared as suspensions in 0.5% methyl cellulose (Sigma, Cat # M0512, Viscosity 4000 cP at 20° C.) in water, regardless of solubility. Dry powder compounds are initially ground with a glass rod in a test tube in several drops of methyl cellulose to create a paste and to break down any large chunks. After several minutes of grinding, the volume of the suspension is increased to the final concentration desired. The suspension is then sonicated using a Branson sonicator model 3510 in a water bath at room temperature for 15 minutes. Compound suspensions are further vortexed prior to animal dosing. In some of the cases, DMSO is used to initially solubilize compounds in small volumes and then this solution is added to the 0.5% methyl cellulose solution, in order to create more even and less aggregated compound suspensions. The final concentration of DMSO is 3.75%, an amount with no apparent toxicity or neuroprotective effects in our usual rotarod and MES tests. Methyl cellulose/DMSO compound suspensions are identically prepared for intraperitoneally (i.p.)dosing to mice or orally (p.o.) dosing to rats.
Initially the animals are weighed with an electronic scale and then marked. Data recording sheets are generated for each compound assessment. Mice or rats are dosed with the compound suspension at 0.01 mL/g of body weight. The typical injection volume range is between 180-250 μl for mice. Compounds are dosed by i.p. to mice using a 25 or 22 gauge needle, depending on the viscosity of the suspension. Rats are p.o. dosed using a flexible feeding tube, typically starting at a compound dose of 5 mg/kg.
A Rodent Electroconvulsive Stimulator (Model 200, Hamit-Darvin-Freesh, Snow Canyon Clinic, Ivins, Utah) is used for MES testing. A 60-Hz alternating current (50 mA for mice; 150 mA for rats) is delivered for 0.2 seconds through corneal electrodes to the mice. A drop of 0.5% tetracaine (Sigma, Cat. # T-7508) solution is placed on the eye prior to current delivery. The electrodes are subsequently placed gently onto the eyes of the animal and the electrical shock is initiated by triggering through a foot-pedal activator. The animals are restrained by hand and gently released as the shock is delivered and the seizure commences. Animals are monitored for hind limb tonic extension as the end point for this test. Current delivery is recorded as a measure of overall seizure-induction potential. Electrical current delivery can vary from approximately 30-55 mA (mice) or 90-160 mA (rats) depending on impedance in the animal and quality of the current delivery (i.e. correct placement of the electrodes on the cornea). […]

Structure (SMILES)	EC50 [1] [µM]	Mouse MES test [2]
Cc1c(Br)c2c(c(C)c1NC(=O)CC(C)(C)C)CCCC2Nc1ccc(C(F)(F)F)cc1 (centres unmarked)	> 0.5	
Cc1cc2c(c(C)c1NC(=O)CC(C)(C)C)CCCC2Nc1ccc(F)cc1 (single isomer, unassigned; (+)) [Example 4, (+)N-(5-(4-fluorophenylamino)-1,3-dimethyl-5,6,7,8-tetrahydronaphthalen-2-yl)-3,3-dimethylbutanamide]	0.01 to 0.05	A
Cc1cc2c(c(C)c1NC(=O)CC(C)(C)C)CCC2Nc1ccc(F)cc1 (single isomer, unassigned; (+)) [Example 13, (+) N-(1-(4-fluorophenylamino)-4,6-dimethyl-2,3-dihydro-1H-inden-5-yl)-3,3-dimethylbutanamide]	0.001 to 0.01	A
Cc1cc2c(c(C)c1NC(=O)CC(C)(C)C)CCC2Nc1ccc(C(F)(F)F)cc1 (single isomer, unassigned; (+)) [Example 16, (+) N-(4,6-dimethyl-1-(4-(trifluoromethyl)phenylamino)-2,3-dihydro-1H-inden-5-yl)-3,3-dimethylbutanamide]	0.001 to 0.01	A
Cc1cc2c(c(C)c1NC(=O)CC(C)(C)C)CCCC2Nc1ccc(F)cc1 (single isomer, unassigned; (-)) [Example 3, (−)N-(5-(4-fluorophenylamino)-1,3-dimethyl-5,6,7,8-tetrahydronaphthalen-2-yl)-3,3-dimethylbutanamide]	0.001 to 0.01	A
Cc1cc2c(c(C)c1NC(=O)CC(C)(C)C)CCCC2Nc1ccc(F)cc1 (centres unmarked) [Example 2, N-(5-(4-fluorophenylamino)-1,3-dimethyl-5,6,7,8-tetrahydronaphthalen-2-yl)-3,3-dimethylbutanamide]	0.01 to 0.05	A
Cc1cc2c(c(C)c1NC(=O)CC(C)(C)C)CCCC2Nc1ccc(C(F)(F)F)cc1 (centres unmarked) [Example 5, N-(1,3-dimethyl-5-(4-(trifluoromethyl)phenylamino)-5,6,7,8-tetrahydronaphthalen-2-yl)-3,3-dimethylbutanamide]	0.001 to 0.01	A
Cc1cc2c(c(C)c1NC(=O)CC(C)(C)C)CCCC2Nc1ccc(Cl)c(Cl)c1 (centres unmarked) [Example 6, N-(1,3-dimethyl-5-(3,4-dichlorophenylamine)-5,6,7,8-tetrahydronaphthalen-2-yl)-3,3-dimethylbutanamide]	0.001 to 0.01	B
Cc1cc2c(c(C)c1NC(=O)CC(C)(C)C)CCCC2Nc1ccc(Cl)cc1 (centres unmarked) [Example 7, N-(1,3-dimethyl-5-(4-chlorophenylamino)-5,6,7,8-tetrahydronaphthalen-2-yl)-3,3-dimethylbutanamide]	0.001 to 0.01	A
Cc1cc2c(c(C)c1NC(=O)CC(C)(C)C)CCCC2Nc1ccc(Br)cc1 (centres unmarked) [Example 8, N-(1,3-dimethyl-5-(4-bromophenylamino)-5,6,7,8-tetrahydronaphthalen-2-yl)-3,3-dimethylbutanamide]	0.001 to 0.01	
Cc1cc2c(c(C)c1NC(=O)CC(C)(C)C)CCCC2Nc1cccc(Cl)c1 (centres unmarked) [Example 9, N-(1,3-dimethyl-5-(3-chlorophenylamino)-5,6,7,8-tetrahydronaphthalen-2-yl)-3,3-dimethylbutanamide]	0.001 to 0.01	A
Cc1cc2c(c(C)c1NC(=O)CC(C)(C)C)CCCC2Nc1cc(F)cc(F)c1 (centres unmarked) [Example 10, N-(1,3-dimethyl-5-(3,5-difluorophenylamino)-5,6,7,8-tetrahydronaphthalen-2-yl)-3,3-dimethylbutanamide]	0.001 to 0.01	A
Cc1cc2c(c(C)c1NC(=O)CC(C)(C)C)CCC2Nc1ccc(Cl)cc1 (centres unmarked) [Example 17, N-(4,6-dimethyl-1-(4-chlorophenylamino)-2,3-dihydro-1H-inden-5-yl)-3,3-dimethylbutanamide]	≤ 0.001	A
Cc1cc2c(c(C)c1NC(=O)CC(C)(C)C)CCC2Nc1ccc(Br)cc1 (centres unmarked) [Example 18, N-(4,6-dimethyl-1-(4-bromophenylamino)-2,3-dihydro-1H-inden-5-yl)-3,3-dimethylbutanamide]	≤ 0.001	A
Cc1cc2c(c(C)c1NC(=O)CC(C)(C)C)CCC2Nc1cccc(Cl)c1 (centres unmarked) [Example 19, N-(4,6-dimethyl-1-(3-chlorophenylamino)-2,3-dihydro-1H-inden-5-yl)-3,3-dimethylbutanamide]	0.001 to 0.01	A
Cc1cc2c(c(C)c1NC(=O)CC(C)(C)C)CCC2Nc1ccc(Cl)c(Cl)c1 (centres unmarked) [Example 20, N-(4,6-dimethyl-1-(3,4-dichlorophenylamine)-2,3-dihydro-1H-inden-5-yl)-3,3-dimethylbutanamide]	≤ 0.001	A
Cc1cc2c(c(C)c1NC(=O)CC(C)(C)C)CCC2Nc1ccc(F)c(F)c1 (centres unmarked) [Example 21, N-(4,6-dimethyl-1-(3,4-difluorophenylamino)-2,3-dihydro-1H-inden-5-yl)-3,3-dimethylbutanamide]	0.001 to 0.01	A
Cc1cc2c(c(C)c1NC(=O)CC(C)(C)C)CCC2Nc1cc(F)cc(F)c1 (centres unmarked) [Example 22, N-(4,6-dimethyl-1-(3,5-difluorophenylamino)-2,3-dihydro-1H-inden-5-yl)-3,3-dimethylbutanamide]	0.001 to 0.01	A
CCOC(=O)Nc1ccc2c(c1)CCC2Nc1ccc(F)cc1 (centres unmarked) [Example 25, Ethyl 1-(4-fluorophenylamino)-2,3-dihydro-1H-inden-5-yl-carbamate]	> 0.5	
